Assay results as given in patent publication US20260356851A1, “TRICYCLIC COMPOUNDS AND USES THEREOF” (HUTCHMED LIMITED, priority 2023, published 2026).
Read-outs that look alike come from different tables or passages of the source.

Experiments:
Assay type in all cases: cell-based
[1] = biological target: T1, pERK1/2 (Thr202/Tyr204), PANC-1 (KRAS G121D) (Homo sapiens, UniProt P01116, G12D); test: Assay of intracellular pERK1/2 (Thr202/Tyr204) phosphorylation in PANC-1 cells (KRAS G12D)
T1 construct: pERK1/2 HTRF read-out
T1 sequence (P01116 1-188 isoform P01116-2 G12D): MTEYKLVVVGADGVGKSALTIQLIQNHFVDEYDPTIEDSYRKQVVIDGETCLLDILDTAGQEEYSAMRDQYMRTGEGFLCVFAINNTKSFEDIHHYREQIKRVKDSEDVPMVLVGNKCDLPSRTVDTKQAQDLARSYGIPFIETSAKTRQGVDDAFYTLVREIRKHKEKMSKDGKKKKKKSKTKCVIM
Procedure, shortened: (§1)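 HTRF detection of Thr202/Tyr204-phosphorylated ERK1/2 (665/615 nm ratio) in lysates from cells treated 2 days with serially 3-fold diluted compound.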

[2] = biological target: T2, pERK1/2 (Thr202/Tyr204), NCI-1H358 (KRAS G12C) (Homo sapiens, UniProt P01116, G12C); test: Assay of intracellular pERK1/2 (Thr202/Tyr204) phosphorylation in NCI-H358 cells (KRAS G12C)
T2 construct: pERK1/2 HTRF read-out
T2 sequence (P01116 1-188 isoform P01116-2 G12C): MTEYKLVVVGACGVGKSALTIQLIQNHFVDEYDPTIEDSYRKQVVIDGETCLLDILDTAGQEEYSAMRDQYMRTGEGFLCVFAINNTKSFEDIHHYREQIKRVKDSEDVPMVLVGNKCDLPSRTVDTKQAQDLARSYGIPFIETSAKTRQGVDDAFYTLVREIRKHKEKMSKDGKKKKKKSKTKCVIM
Procedure, shortened: as §1

[3] = biological target: T3, pERK1/2 (Thr202/Tyr204), NCI-1H441 (KRAS G12V) (Homo sapiens, UniProt P01116, G12V); test: Assay of intracellular pERK1/2 (Thr202/Tyr204) phosphorylation in NCI-H441 cells (KRAS G12V)
T3 construct: pERK1/2 HTRF read-out
T3 sequence (P01116 1-188 isoform P01116-2 G12V): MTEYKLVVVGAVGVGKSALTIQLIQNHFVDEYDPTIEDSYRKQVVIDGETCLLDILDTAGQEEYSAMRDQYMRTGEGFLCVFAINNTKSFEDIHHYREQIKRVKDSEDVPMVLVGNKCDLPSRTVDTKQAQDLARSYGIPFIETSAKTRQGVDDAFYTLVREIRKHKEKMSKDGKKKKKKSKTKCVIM
Procedure, shortened: as §1

[4] = pERK1/2, 2 days, read-out: PANC-1 (KRAS G12D) IC50
[5] = pERK1/2, 2 days, read-out: NCI-H358 (KRAS G12C) IC50
[6] = pERK1/2, 2 days, read-out: NCI-H441 (KRAS G12V) IC50

SMILES | IC50 [1, 4] [nM] | IC50 [2, 5] [nM] | IC50 [3, 6] [nM] | IC50 ([1]; read-out: PANC-1 (KRAS G12D) IC50, pERK1/2, 2 days) [nM] | IC50 ([2]; read-out: NCI-H358 (KRAS G12C) IC50, pERK1/2, 2 days) [nM] | IC50 ([3]; read-out: NCI-H441 (KRAS G12V) IC50, pERK1/2, 2 days) [nM]
CC(c1cccnc1N)N1CCOc2nc(-c3cc(O)cc4ccc(F)c(F)c34)c(F)c3nc(OC[C@@]45CCCN4C[C@H](F)C5)nc1c23 (stereo partly drawn) [Compound 1, 4-(10-(1-(2-Aminopyridin-3-yl)ethyl)-4-fluoro-2-(((2R,7aS)-2-fluorotetrahydro-1H-pyrrolizin-7a(5H)-yl)methoxy)-9,10-dihydro-8H-7-oxa-1,3,6,10-tetraazacyclohepta[de]naphthalen-5-yl)-5,6-difluoronaphthalen-2-ol] |  |  |  | 6 | 0.7 | 3
Cc1cc2[nH]ncc2c(-c2nc3c4c(nc(OC[C@@]56CCCN5C[C@H](F)C6)nc4c2F)N(C(C)c2cccnc2N)CCO3)c1C (stereo partly drawn) [Compound 2, 3-(1-(5-(5,6-Dimethyl-1H-indazol-4-yl)-4-fluoro-2-(((2R,7aS)-2-fluorotetrahydro-1H-pyrrolizin-7a(5H)-yl)methoxy)-8,9-dihydro-1OH-7-oxa-1,3,6,10-tetraazacyclohepta[de]naphthalen-10-yl)ethyl)pyridin-2-amine] | 321 | 9 | 42 |  |  | 
Cc1cc2[nH]ncc2c(-c2nc3c4c(nc(O)nc4c2F)N(C(C)c2cccnc2N)CCO3)c1C (stereo not drawn) [Compound 3, 10-(1-(2-Aminopyridin-3-yl)ethyl)-5-(5,6-dimethyl-1H-indazol-4-yl)-4-fluoro-9,10-dihydro-8H-7-oxa-1,3,6,10-tetraazacyclohepta[de]naphthalen-2-ol] | > 1000 | > 1000 | > 1000 |  |  | 
CC(c1cccnc1N)N1CCOc2nc(-c3cc(O)cc(Cl)c3C3CC3)c(F)c3nc(OC[C@@]45CCCN4C[C@H](F)C5)nc1c23 (stereo partly drawn) [Compound 4] | 10 | 1 | 2 |  |  | 
Cc1cc2[nH]ncc2c(-c2nc3c4c(nc(OCC5(CN(C)C)CC5)nc4c2F)N(C(C)c2cccnc2N)CCO3)c1C (stereo not drawn) [Compound 5] | > 1000 | 710 | > 1000 |  |  | 
CC(c1cccnc1N)N1CCOc2nc(-c3cc(O)cc4ccc(F)c(F)c34)c(F)c3nc(OC[C@@H]4CCCN4C)nc1c23 (stereo partly drawn) [Compound 6] | 136 | 4 | 17 |  |  | 
CC(c1cccnc1N)N1CCOc2nc(-c3cc(O)cc4ccc(F)c(F)c34)c(F)c3nc(OCC4(CN(C)C)CC4)nc1c23 (stereo not drawn) [Compound 7] | 238 | 8 | 33 |  |  | 
CC(c1cccnc1N)N1CCOc2nc(-c3cc(O)cc4ccc(F)c(F)c34)c(F)c3nc(OC[C@@H]4CCN4CC(F)F)nc1c23 (stereo partly drawn) [Compound 8] | 113 | 1 | 2 |  |  | 
CC(c1cccnc1N)N1CCOc2nc(-c3cc(O)cc4ccc(F)c(F)c34)c(F)c3nc(O)nc1c23 (stereo not drawn) [Compound 9] | > 1000 | > 1000 | > 1000 |  |  | 
CCOc1nc2c3c(nc(-c4cc(O)cc5ccc(F)c(F)c45)c(F)c3n1)OCCN2C(C)c1cccnc1N (stereo not drawn) [Compound 10] | > 1000 | 152 | 797 |  |  | 
CC(c1cccnc1N)N1CCOc2nc(-c3cc(O)cc4ccc(F)c(F)c34)c(F)c3nc(OC[C@@]45CCCN4C/C(=C\F)C5)nc1c23 (stereo partly drawn) [Compound 11] | 4 | 1 | 1 |  |  | 
CC(c1cccnc1N)N1CCOc2nc(-c3cc(O)cc4ccc(F)c(F)c34)c(F)c3nc(OC[C@H]4COCCN4)nc1c23 (stereo partly drawn) [Compound 12] | > 1000 | 54 | 192 |  |  | 
CC(c1cccnc1N)N1CCOc2nc(-c3cc(O)cc4ccc(F)c(F)c34)c(F)c3nc(OC[C@@H]4COCCN4)nc1c23 (stereo partly drawn) [Compound 13] | > 1000 | 137 | 247 |  |  | 
Cc1cc2[nH]ncc2c(-c2nc3c4c(nc(OC[C@@H]5CCN5CC(F)F)nc4c2F)N(C(C)c2cccnc2N)CCO3)c1C (stereo partly drawn) [Compound 14] | > 1000 | 19 | 36 |  |  | 
CC(c1cccnc1N)N1CCOc2nc(-c3c(C(F)(F)F)ccc4[nH]ncc34)c(F)c3nc(OC[C@@]45CCCN4C[C@H](F)C5)nc1c23 (stereo partly drawn) [Compound 15] | 175 | 2 | 17 |  |  | 
CC(c1cccnc1N)N1CCOc2nc(-c3cc(O)cc(Cl)c3C3CC3)c(F)c3nc(OC[C@@H]4CCN4CC(F)F)nc1c23 (stereo partly drawn) [Compound 16] | 151 | 2 | 5 |  |  | 

Continued, values first:

IC50 [1, 4] [nM] | IC50 [2, 5] [nM] | IC50 [3, 6] [nM] | IC50 ([1]; read-out: PANC-1 (KRAS G12D) IC50, pERK1/2, 2 days) [nM] | IC50 ([2]; read-out: NCI-H358 (KRAS G12C) IC50, pERK1/2, 2 days) [nM] | IC50 ([3]; read-out: NCI-H441 (KRAS G12V) IC50, pERK1/2, 2 days) [nM] | SMILES
> 100 | > 100 | > 100 |  |  |  | CC(c1cccnc1N)N1c2nc(OC[C@@]34CCCN3C[C@H](F)C4)nc3c(F)c(-c4c(C(F)(F)F)ccc5c4CCCN5)nc(c23)OC[C@@H]1C (single isomer, unassigned; diastereomer 2) [Compound 339, (*)3-(1-((5R or 5S,9S)-4-fluoro-2-(((2R,7aS)-2-fluorotetrahydro-1H-pyrrolizin-7a(5H)-yl)methoxy)-9-methyl-5-(6-(trifluoromethyl)-1,2,3,4-tetrahydroquinolin-5-yl)-8,9-dihydro-10H-7-oxa-1,3,6,10-tetraazacyclohepta[de]naphthalen-10-yl)ethyl)pyridin-2-amine (diastereomer 2)]
> 1000 | 29 | 108 |  |  |  | CC(c1cccnc1N)N1CCOc2nc(-c3cccc4sc(N)nc34)c(F)c3nc(OC[C@@H]4CCN4CC(F)F)nc1c23 (stereo partly drawn) [Compound 17]
54 | 1 | 3 |  |  |  | CC(c1cccnc1N)N1CCOc2nc(-c3cc(N)ccc3C(F)(F)F)c(F)c3nc(OC[C@@]45CCCN4C[C@H](F)C5)nc1c23 (stereo partly drawn) [Compound 18]
> 1000 | 15 | 66 |  |  |  | CC(c1cccnc1N)N1CCOc2nc(-c3ccc(F)c4sc(N)nc34)c(F)c3nc(OC[C@@H]4CCN4CC(F)F)nc1c23 (stereo partly drawn) [Compound 19]
393 | 38 | 105 |  |  |  | CC(c1cccnc1N)N1CCOc2nc(-c3cc(O)cc4ccc(F)c(F)c34)c(F)c3ncnc1c23 (stereo not drawn) [Compound 22]
593 | 7 | 14 |  |  |  | CC(c1cccnc1N)N1CCOc2nc(-c3c(C(F)(F)F)ccc4[nH]ncc34)c(F)c3nc(OC[C@@H]4CCN4CC(F)F)nc1c23 (stereo partly drawn) [Compound 25]
> 1000 | 448 | > 1000 |  |  |  | CC(c1cccnc1N)N1CCOc2nc(-c3nc(N)cc4ccccc34)c(F)c3nc(OC[C@@H]4CCCN4C)nc1c23 (stereo partly drawn) [Compound 28, 1-(10-(1-(2-aminopyridin-3-yl)ethyl)-4-fluoro-2-(((S)-1-methylpyrrolidin-2-yl)methoxy)-9,10-dihydro-8H-7-oxa-1,3,6,10-tetraazacyclohepta[de]naphthalen-5-yl)isoquinolin-3-amine]
> 1000 | 193 | 121 |  |  |  | CSc1nc2c3c(nc(-c4cc(O)cc5ccc(F)c(F)c45)c(F)c3n1)OCCN2C(C)c1cccnc1N (stereo not drawn) [Compound 33]
286 | 6 | 25 |  |  |  | CC(c1cccnc1N)N1CCOc2nc(-c3cc(N)ccc3C(F)(F)F)c(F)c3nc(OC[C@@H]4CCCN4C)nc1c23 (stereo partly drawn) [Compound 36]
851 | 11 | 26 |  |  |  | CC(c1cccnc1N)N1CCOc2nc(-c3cc(N)ccc3C(F)(F)F)c(F)c3nc(OC[C@@H]4CC(F)(F)CN4C)nc1c23 (stereo partly drawn) [Compound 37]
934 | 18 | 31 |  |  |  | CC(c1cccnc1N)N1CCOc2nc(-c3c(C(F)(F)F)ccc4[nH]ncc34)c(F)c3nc(OC[C@@H]4CC(F)(F)CN4C)nc1c23 (stereo partly drawn) [Compound 40]
> 1000 | 38 | 53 |  |  |  | CC(c1cccnc1N)N1CCOc2nc(-c3cc(O)cc(F)c3C3CC3)c(F)c3nc(OC[C@@H]4CC(F)(F)CN4C)nc1c23 (stereo partly drawn) [Compound 45]
287 | 4 | 5 |  |  |  | CC(c1cccnc1N)N1CCOc2nc(-c3cc(O)cc4ccc(F)c(F)c34)c(F)c3nc(OC[C@@H]4CC(F)(F)CN4C)nc1c23 (stereo partly drawn) [Compound 46]
347 | > 1000 | > 1000 |  |  |  | COc1ccc(C(F)(F)F)cc1-c1nc2c3c(nc(OC[C@@]45CCCN4C[C@H](F)C5)nc3c1F)N(C(C)c1cccnc1N)CCO2 (stereo partly drawn) [Compound 47]
2 | 0.2 | 0.7 |  |  |  | Cc1cc(N)cc(-c2nc3c4c(nc(OC[C@@]56CCCN5C[C@H](F)C6)nc4c2F)N(C(C)c2cccnc2N)CCO3)c1C(F)(F)F (stereo partly drawn) [Compound 59]
> 1000 | 518 | 806 |  |  |  | C#Cc1ccc2[nH]ncc2c1-c1nc2c3c(nc(OC[C@@]45CCCN4C[C@H](F)C5)nc3c1F)N(C(C)c1cccnc1N)CCO2 (stereo partly drawn) [Compound 60]
2 | 0.4 | 0.5 |  |  |  | CC(c1cccnc1N)N1CCOc2nc(-c3cc(N)cc(Cl)c3C(F)(F)F)c(F)c3nc(OC[C@@]45CCCN4C[C@H](F)C5)nc1c23 (stereo partly drawn) [Compound 63]
23 | 0.6 | 2 |  |  |  | CC(c1cccnc1N)N1CCOc2nc(-c3cc(N)cc(Cl)c3C(F)(F)F)c(F)c3nc(OC[C@@H]4CCCN4C)nc1c23 (stereo partly drawn) [Compound 64]
26 | 1 | 2 |  |  |  | Cc1cc(N)cc(-c2nc3c4c(nc(OC[C@@H]5CCCN5C)nc4c2F)N(C(C)c2cccnc2N)CCO3)c1C(F)(F)F (stereo partly drawn) [Compound 65]
